From the NIST ThermoML archive (doi:10.1021/je500936y)

Legend:
[1] = 100 kPa, Liquid; for speed of sound: Frequency=3 MHz, Sing-around technique in a fixed-path interferometer; for mass density: Vibrating tube method
[2] = refractive index (Na D-line) (dimensionless); details: 100 kPa, Liquid, Standard Abbe refractometry
[3] = refractive index (Na D-line) (dimensionless); xn = mol fraction of the nth substance listed; details: 100 kPa, Liquid, Standard Abbe refractometry, x1 = 1
[4] = xn = mol fraction of the nth substance listed; details: 100 kPa, Liquid, x1 = 1; for speed of sound: Frequency=3 MHz, Sing-around technique in a fixed-path interferometer; for mass density: Vibrating tube method

C=CN1CCCC1=O [N-vinylpyrrolidone]
Details | mass density, [1] [kg/m3] | refractive index, [2] | speed of sound, [1] [m/s]
298.15 K | 1039.36 | 1.51119 | 1521.5
303.15 K | 1034.95 | 1.50886 | 1502.5
308.15 K | 1030.55 | 1.5065 | 1483.7
313.15 K | 1026.14 | 1.50415 | 1465
318.15 K | 1021.73 | 1.50181 | 1446.5
323.15 K | 1017.33 | 1.49948 | 1428.1

CCCCn1cc[n+](C)c1.F[B-](F)(F)F [1-butyl-3-methylimidazolium tetrafluoroborate] + C=CN1CCCC1=O
Details | mass density, [4] [kg/m3] | refractive index, [3] | speed of sound, [4] [m/s]
298.15 K | 1198.78 | 1.42058 | 1565.1
303.15 K | 1195.18 | 1.41913 | 1553.2
308.15 K | 1191.6 | 1.41764 | 1541.3
313.15 K | 1188.04 | 1.41621 | 1529.7
318.15 K | 1184.5 | 1.41472 | 1518.2
323.15 K | 1180.98 | 1.4133 | 1506.8

CCCCn1cc[n+](C)c1.F[B-](F)(F)F [1-butyl-3-methylimidazolium tetrafluoroborate]
Details | mass density, [1] [kg/m3] | refractive index, [2] | speed of sound, [1] [m/s]
298.15 K | 1198.78 | 1.42058 | 1565.1
303.15 K | 1195.18 | 1.41913 | 1553.2
308.15 K | 1191.6 | 1.41764 | 1541.3
313.15 K | 1188.04 | 1.41621 | 1529.7
318.15 K | 1184.5 | 1.41472 | 1518.2
323.15 K | 1180.98 | 1.4133 | 1506.8
